From patent publication US7807704B2, “Bicyclic, nitrogen-containing compounds modulating CXCR4 and/or CCXCKR2” (Chemocentryx, Inc., priority 2006, dated 2010) come the findings set out here.

The target in the test is T1, CXCR4 (Homo sapiens, UniProt P61073).
T1 construct: all endogenously expressing CXCR4; endogenous in cells; host or cells: CEM-Nkr, CCRF-CEM, Jurkat, Molt-4; IL-2 stimulated human lymphocytes
The test can be described thus: chemotaxis assay or 125I SDF-1α binding assay for CXCR4. The conditions noted are these: first or only activity listed, read-out: CXCR4 activity (IC50 class). On the procedure: CEM-Nkr, CCRF-CEM (ATCC #CCL-119), Jurkat (ATCC #TIB-152), Molt-4 (ATCC# CRL-1582), cell lines, all endogenously expressing CXCR4, were used in compound screening and subsequent assays. These cell lines were cultured as a suspension in RPMI-1640 medium supplemented with 2 mM L-glutamine, 1.5 g/L sodium bicarbonate, 4.5 g/L glucose, 10 mM HEPES, 1 mM sodium pyruvate, and 10% FBS. Cells were grown under 5% CO2/95% air, 100% humidity at 37° C. and subcultured twice weekly at 1:6 (cells were cultured at a density range of 1×10^5 to 2×10^6 cells/mL) and harvested at 1×10^6 cells/mL. • b) Isolated Human IL-2 Stimulated Lymphocytes
Cells were centrifuged and resuspended in assay buffer (20 mM HEPES pH 7.1, 140 mM NaCl, 1 mM CaCl2, 5 mM MgCl2, and with 0.2% bovine serum albumin) to a concentration of 4×10^6 cells/mL for cell lines. Binding assays were set up as follows. […] Then 0.1 mL of ^125I labeled SDF-1α (obtained from Perkin Elmer Life Sciences, Boston, Mass.) diluted in assay buffer to a final concentration of ˜50 pM, yielding ˜30,000 cpm per well, was added, the plates sealed and incubated for approximately 3 hours at 4° C. on a shaker platform. Reactions were aspirated onto GF/B glass filters pre-soaked in 0.3% polyethyleneimine (PEI) solution, on a vacuum cell harvester (Packard Instruments; Meriden, Conn.). Scintillation fluid (40 μl; Microscint 20, Packard Instruments) was added to each well, the plates were sealed and radioactivity measured in a Topcount scintillation counter (Packard Instruments). Control wells containing either diluent only (for total counts) or excess SDF1 a (1 μg/mL, for non-specific binding) were used to calculate the percent of total inhibition for compound. The computer program Prism from GraphPad, Inc. (San Diego, Calif.) was used to calculate IC50 values. IC50 values are those concentrations required to reduce the binding of radiolabeled SDF-1α to the receptor by 50%. (For further descriptions of ligand binding and other functional assays, see Dairaghi, et al., J. Biol. Chem. 274:21569-21574 (1999), Penfold, et al., Proc. Natl. Acad. Sci. USA. 96:9839-9844 (1999), and Dairaghi, et al., J. Biol. Chem. 272:28206-28209 (1997)).
Chemotaxis assays were performed using 5 μm pore polycarbonate, polyvinylpyrrolidone-coated filters in 96-well chemotaxis chambers (Neuroprobe; Gaithersburg, Md.) using chemotaxis buffer (Hank's balanced salt solution (HBSS) and 1% FBS). CXCR4 ligand (i.e., SDF1a, R&D Systems; Minneapolis, Minn.) are use to evaluate compound mediated inhibition of CXCR4 mediated migration. Other chemokines (i.e., TECK; R&D Systems; Minneapolis, Minn.) are used as specificity controls. The lower chamber was loaded with 29 μl of chemokine (i.e., 0.1 nM SDF1a); the top chamber contained 50,000 Jurkat cells or IL-2 lymphocytes in 20 μl. The chambers were incubated 2 hours at 37° C., and the number of cells in the lower chamber quantified either by direct cell counts in five high powered fields per well or by the CyQuant assay (Molecular Probes), a fluorescent dye method that measures nucleic acid content and microscopic observation.
To evaluate small organic molecules that prevent the CXCR4 from binding ligand, an assay was employed that detected radioactive ligand (i.e, SDF-1) binding to cells expressing CXCR4 on the cell surface (for example, CEM-Nkr cells). For compounds that inhibited binding, whether competitive or not, fewer radioactive counts are observed when compared to uninhibited controls.
Equal numbers of cells were added to each well in the plate. The cells were then incubated with radiolabeled […]. Unbound ligand was removed by washing the cells, and bound ligand was determined by quantifying radioactive counts. Cells that were incubated without any organic compound gave total counts; non-specific binding was determined by incubating the cells with unlabeled ligand and labeled ligand. Percent inhibition was determined by the equation: […]

T1 sequence (P61073 whole entry): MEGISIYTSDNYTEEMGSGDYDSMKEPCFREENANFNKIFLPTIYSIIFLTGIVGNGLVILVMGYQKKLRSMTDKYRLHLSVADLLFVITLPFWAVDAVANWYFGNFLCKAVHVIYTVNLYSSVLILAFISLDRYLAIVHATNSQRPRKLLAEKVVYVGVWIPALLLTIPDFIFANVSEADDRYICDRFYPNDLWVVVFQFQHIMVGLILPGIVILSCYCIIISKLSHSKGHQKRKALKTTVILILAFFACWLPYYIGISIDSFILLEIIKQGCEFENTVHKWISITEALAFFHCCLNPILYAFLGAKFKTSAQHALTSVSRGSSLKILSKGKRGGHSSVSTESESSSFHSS

Broadly, the IC50 is the midpoint of a concentration-inhibition curve. As for `CN(CCNC(=O)Cn1ccc2ccc(-c3ccc(Cl)cc3)cc21)C1CCCCC1` [No 29], the IC50 is below 1000 nM.

As to `CN(CCNC(=O)Cn1cnc2c1CCOC2)C1CCCCC1` [No 19], the 50% inhibitory concentration (IC50) was above 10000 nM.

Regarding `COc1cc(-c2ccc(C)cc2)cc2c1ccn2CC(=O)NCCN(C)C1CCCCC1` [No 17], the IC50 is below 1000 nM.

For `Cc1ccc(-c2ccc3ccn(CC(=O)NCCN4CCCCCC4)c3c2)cc1` [No 54], the IC50 is below 1000 nM.

As for `Cc1ccc(-c2ccc3ccn(CC(=O)NCCN4CCC[C@@H]5CCCC[C@H]54)c3c2)cc1` [No 44], the IC50 is below 1000 nM.

Regarding `Cc1ccc(-c2ccc3c(C4=CCCC=C4)nn(CC(=O)NCCN(C)C4CCCCC4)c3c2)cc1` [No 16], the IC50 is 1000 to 10000 nM.

For `Cc1ccc(-c2ccc3ccn(CC(=O)NCCN(C)C4CCCCC4)c3c2)cc1F` [No 48], the IC50 was below 1000 nM.

As for `Cc1ccc(-c2ccc3ccn(CC(=O)NCCN4CCCC(C)(C)C4)c3c2)cc1` [No 63], the IC50 was below 1000 nM.

As to `Cc1ccc(-c2ccc3ccn(CC(=O)NCCN4CCC(C)CC4)c3c2)cc1` [No 56], the IC50 was below 1000 nM.

Turning to `Cc1ccc(-c2ccc3oc(=O)n(CC(=O)NCCN(C)C4CCCCC4)c3c2)cc1` [No 12], the IC50 is below 1000 nM.

On to `CN(CCNC(=O)Cn1ncc2c1CCCC2)C1CCCCC1` [No 6], for which the IC50 was above 10000 nM.

Consider `Cc1ccc(-c2ccc3cc(C(=O)O)n(CC(=O)NCCN(C)C4CCCCC4)c3c2)cc1` [No 14], for which the IC50 was below 1000 nM.

In the case of `CN(CCNC(=O)Cn1ccc2ccc(-c3ccncc3)cc21)C1CCCCC1` [No 40], the IC50 was below 1000 nM.

As for `Cc1ccccc1-c1ccc2ccn(CC(=O)NCCN(C)C3CCCCC3)c2c1` [No 30], the IC50 was 1000 to 10000 nM.

As for `COC(=O)c1cc2ccc(-c3ccc(C)cc3)cc2n1CC(=O)NCCN(C)C1CCCCC1` [No 58], the IC50 is below 1000 nM.

On to `CN(CCNC(=O)Cc1c[nH]c2ccccc12)C1CCCCC1` [No 20], for which the IC50 lay in the range of 1000 to 10000 nM.

With `Cc1ccc(-c2ccc3ccn(CC(=O)NCCN4CC(C)CC(C)C4)c3c2)cc1` (centres unmarked) [No 64], the IC50 was below 1000 nM.

`Cc1ccc(-c2ccc3ncn(CC(=O)NCCN(C)C4CCCCC4)c3c2)cc1` [No 60]: the IC50 was below 1000 nM.

For `Cc1ccc(-c2ccc3c(ccn3CC(=O)NCCN(C)C3CCCCC3)c2)cc1` [No 41], the IC50 is below 1000 nM.

For the molecule `CN(CCNC(=O)Cn1ccc2cc(-c3ccc(F)cc3)ccc21)C1CCCCC1` [No 42], the IC50 is below 1000 nM.

Consider `CN(CCNC(=O)Cn1ccc2ccc(-c3ccc(C(N)=O)cc3)cc21)C1CCCCC1` [No 50], for which the IC50 is below 1000 nM.

On to `Cc1ccc2c(c1)ncn2CC(=O)NCCN(C)C1CCCCC1` [No 9], for which the IC50 was below 1000 nM.

Take `CN(CCNC(=O)Cn1cnc2ncccc21)C1CCCCC1` [No 7]: the IC50 fell in the range of 1000 to 10000 nM.

As for `CC(C)c1ccc(-c2ccc3ccn(CC(=O)NCCN4CCCC5CCCCC54)c3c2)cc1` (centres unmarked) [No 3], the IC50 is below 1000 nM.

Turning to `CN(CCNC(=O)Cn1ccc2ccc(-c3cc4ccccc4o3)cc21)C1CCCCC1` [No 37], the IC50 is below 1000 nM.

On to `Cc1ccc(-c2ccc3ccn(CC(=O)NCCNC4CCOC4)c3c2)cc1` (centres unmarked) [No 13], for which the IC50 is 1000 to 10000 nM.

As for `CN(CCNC(=O)Cn1ccc2cccc([N+](=O)[O-])c21)C1CCCCC1` [No 8], the IC50 was below 1000 nM.

In the case of `C=Cc1ccc(-c2ccc3ccn(CC(=O)NCCN(C)C4CCCCC4)c3c2)cc1` [No 45], the IC50 was below 1000 nM.

Consider `CCc1ccc(-c2ccc3ccn(CC(=O)NCCN(C)C4CCCCC4)c3c2)cc1` [No 38], for which the IC50 is below 1000 nM.

As to `Cc1ccc(-c2ccc3ccn(CC(=O)NCCN(C)C4CCCCC4)c3c2)cc1C` [No 46], the IC50 is below 1000 nM.

Regarding `Cc1ccc(-c2ccc3ccn(CC(=O)NCCN4CCCC4)c3c2)cc1` [No 52], the IC50 is below 1000 nM.

Take `O=C(Cn1ccc2cccc(-c3ccc(F)cc3)c21)NCCN1CCCC2CCCCC21` (centres unmarked) [No 4]: the IC50 was below 1000 nM.

For the molecule `CCN(CCNC(=O)Cn1ccc2ccc(-c3ccc(C)cc3)cc21)C1CCCCC1` [No 55], the IC50 is below 1000 nM.

Consider `CN(CCNC(=O)Cn1cnc2c(F)c(F)ccc21)C1CCCCC1` [No 18], for which the IC50 was below 1000 nM.

With `CN(CCNC(=O)Cn1ccc2ccc(-c3ccc(C(F)(F)F)cc3)cc21)C1CCCCC1` [No 25], the IC50 is below 1000 nM.

As for `Cc1cccc(-c2ccc3ccn(CC(=O)NCCN(C)C4CCCCC4)c3c2)c1` [No 39], the IC50 was below 1000 nM.

For `Cc1ccc(-c2ccc3ccn(CC(=O)NC(C)CN4CCCC4)c3c2)cc1` (centres unmarked) [No 59], the IC50 was below 1000 nM.

Regarding `CN(CCNC(=O)Cn1ccc2ccc(-c3ccc(C#N)cc3)cc21)C1CCCCC1` [No 57], the IC50 is below 1000 nM.

As to `Cc1ccc(-c2ccc3ccn(CC(=O)NC(C)(C)CN4CCCC4)c3c2)cc1` [No 15], the half-maximal inhibitory concentration (IC50) was 1000 to 10000 nM.

Turning to `CN(CCNC(=O)Cn1cc2ccccc2n1)C1CCCCC1` [No 10], the IC50 fell in the range of 1000 to 10000 nM.

As to `CN(CCNC(=O)Cn1ncc2ccccc21)C1CCCCC1` [No 2], the IC50 was above 10000 nM.

Consider `CN(CCCNC(=O)Cn1ccc2cccc(-c3ccc(F)cc3)c21)C1CCCCC1` [No 1], for which the IC50 is below 1000 nM.

Consider `Cc1ccc(-c2ccc3ccn(CC(=O)NCCN(C)C4CCCCC4)c3c2)c(F)c1` [No 47], for which the IC50 is below 1000 nM.

For `Cc1ccc(-c2ccc3ccn(CC(=O)NCCN(C)C4CCCC4)c3c2)cc1` [No 51], the IC50 is below 1000 nM.

For `Cc1ccc(-c2ccc3ccn(CC(=O)NCCN4CCCCC4C)c3c2)cc1` (centres unmarked) [No 53], the IC50 is below 1000 nM.

`CN(C)c1ccc(-c2ccc3ccn(CC(=O)NCCN(C)C4CCCCC4)c3c2)cc1` [No 62]: the IC50 is below 1000 nM.

Consider `CN(CCNC(=O)Cn1ccc2ccc(-c3ccccc3)cc21)C1CCCCC1` [No 22], for which the IC50 is below 1000 nM.

Regarding `Cc1ccc(-c2ccc3cnn(CC(=O)NCCN(C)C4CCCCC4)c3c2)cc1` [No 49], the IC50 is below 1000 nM.

For `Cc1ccc(-c2ccc3ccn(CC(=O)NCCN4CCCCC4)c3c2)cc1` [No 11], the IC50 was below 1000 nM.

Turning to `Cc1ccc(-c2cccc3c2ccn3CC(=O)NCCN(C)C2CCCCC2)cc1` [No 43], the IC50 was below 1000 nM.

In the case of `CN(CCNC(=O)Cn1ccc2ccc(-c3cnc4ccccc4c3)cc21)C1CCCCC1` [No 36], the IC50 was below 1000 nM.

As for `CN(CCNC(=O)Cn1nc(Cl)c2ccccc21)C1CCCCC1` [No 21], the IC50 lay in the range of 1000 to 10000 nM.

In the case of `Cc1ccc(-c2ccc3ccn(CC(=O)NCC(C)N4CCCC4)c3c2)cc1` (centres unmarked) [No 61], the IC50 is below 1000 nM.
